Data on 20 compounds can be found in US8486965B2, “Pyrrolo[2,3-b]pyridine derivative and use thereof for treatment of cancer” (Takeda Pharmaceutical Company Limited, priority 2009, dated 2013).

The structures appear in SMILES notation.

The experiment concerns Hedgehog signal transduction system (Smo). The experiment can be described thus: Gli reporter luciferase assay in NIH-3T3/Gli reporter cells stimulated with mouse Shh-N end fragment. The class given is cell-based. As to conditions: NIH3T3; 1 μM compound; NIH-3T3/Gli reporter cells with mouse Shh-N end fragment culture supernatant, 48 hr; luciferase activity, control without compound as 100; read-out: inhibition rate (%) at 1 μM. From the text: Inhibition of the Hedgehog signal transduction system can be measured, for example, by quantifying a decrease in the expression level of a reporter gene connected to the downstream of the Gli binding site based on the fluorescence intensity according to the following Experimental Example 1. Alternatively, it can be measured by quantifying the expression of Gli-1 mRNA in a cell extract by quantitative PCR method and the like. A compound that inhibits Hedgehog signal targets Smo, which can be confirmed, for example, by binding fluorescence-labeled Cyclopamine and a test compound to cells expressing Smo, measuring the fluorescence level of the cell, and comparing the value with that without addition of a test compound to find a decrease.
Gli reporter plasmid was constructed by inserting 8×Gli-binding site and chicken δ-crystalline promoter into the upstream of luc+ of pGL3 (Promega).
prepared in reference to the base sequence described in GenBank accession No.; X02187, and chicken genome DNA (Clontech) as a template. PCR reaction was performed using Pfu Turbo (Stratagene) and following the attached protocol. The obtained 108 bp fragment was digested with restriction enzymes BglII and HindIII, and inserted into BglII-HindIII site of pGL3 to give plasmid pGL3/δ-cry promoter.
As 8× Gli-binding site, a sequence containing eight 9-bp Gli bound consensus sequences (GACCACCCA) described in Yoon et al., J. Biol. Chem., vol. 273, pages 3496-3501 (1998) was prepared from synthetic DNA. That is, two synthetic DNAs,
were heat treated at 95° C. for 2 minutes, and incubated at 37° C. for 1 hr for annealing to give a double stranded DNA of the above-mentioned two synthetic DNAs. The obtained double stranded DNA was digested with restriction enzymes BglII and KpnI, and the obtained DNA fragment was inserted into BglII-KpnI site of pGL3/δ-cry promoter to construct plasmid pGL3/δ-cry promoter, 8× Gli binding site, i.e., Gli reporter plasmid. 2. Construction of Plasmid for Expression of Mouse Shh-N End Fragment
As a material for construction of plasmid for Shh-N end fragment expression, mouse Shh cDNA was cloned at first.
The mouse Shh cDNA was cloned by Nested PCR method using mouse 11-day fetus cDNA (Clontech) as a template. The primer sequence was prepared in reference to the base sequence described in GenBank accession No.; NM_009170.
Using the mouse Shh cDNA sequence obtained as mentioned above as a template, a partial cDNA sequence wherein stop codon (TGA) was added to 3′-terminal of cDNA sequence encoding 1st to 198th amino acid sequence of mouse Shh was obtained by PCR method. As the primer set,
In the manner mentioned above, a plasmid for mouse Shh-N end fragment expression, pcDNA3.1/mShh-N, was constructed.
HEK293 cells were grown in D-MEM medium (Invitrogen) containing 10% fetal bovine serum in a 10 cm dish and pcDNA3.1/mShh-N was introduced into the cells using FuGENE6 (Roche Applied Science). Thereafter, the HEK293 cells were cultured in a carbon dioxide gas incubator at 37° C. for 24 hours, and the medium was exchanged with D-MEM medium (Invitrogen) containing 2% fetal bovine serum. After culturing for 48 hr, culture supernatant containing recombinant type mouse Shh-N end fragment was obtained by filtration using a filter ([…]).
Using D-MEM (Invitrogen) containing 10% fetal bovine serum, expression plasmid pcDNA3:1 and Gli reporter plasmid (pGL3/δ-cry promoter, 8× Gli binding site) produced by the method of Experimental Example 1 were introduced into NIH-3T3 cells grown in a 10 cm dish by the use of FuGENE6 (Roche Applied Science).
After culture for 24 hr, the cells were recovered, suspended in D-MEM medium containing 10% fetal bovine serum and supplemented with Geneticin (Life Technologies Oriental, Inc.) to a final concentration of 500 μg/ml, diluted to 10^4 cells/ml, plated on a 96 well plate, and cultured in a carbon dioxide gas incubator at 37° C. to give Geneticin resistant transformed cell line. […]
For the compound `CCc1cc2sc(C(=O)NC3CCN(C(=O)CO)CC3)c(OC(C)C)c2cc1NC(=O)c1ccsc1` [Example 152, 6-ethyl-N-[1-(hydroxyacetyl)piperidin-4-yl]-3-(1-methylethoxy)-5-[(thiophen-3-ylcarbonyl)amino]-1-benzothiophene-2-carboxamide], the inhibition at 1 µM turned out to be 97%.

For the compound `CCc1cc2c(cc1NC(=O)c1ccsc1)c(OCC(F)(F)F)c(C(=O)NC1CCN(C(=O)CO)CC1)n2C` [Example 147, 6-ethyl-N-[1-(hydroxyacetyl)piperidin-4-yl]-1-methyl-5-[(thiophen-3-ylcarbonyl)amino]-3-(2,2,2-trifluoroethoxy)-1H-indole-2-carboxamide], the inhibition at 1 µM was 91%.

As to `CCc1cc2c(nc1NC(=O)c1ccccc1)c(OCC(F)(F)F)c(C(=O)NC1CCN(C(=O)CO)CC1)n2C` [Example 127, 6-ethyl-N-[1-(hydroxyacetyl)piperidin-4-yl]-1-methyl-5-[(phenylcarbonyl)amino]-3-(2,2,2-trifluoroethoxy)-1H-pyrrolo[3,2-b]pyridine-2-carboxamide], the inhibition at 1 µM is 96%.

For the compound `CCc1nc2c(cc1NC(=O)c1ccccn1)c(OCC(F)(F)F)c(C(=O)NC1CCN(C(=O)CO)CC1)n2C` [Example 42, 6-ethyl-N-[1-(hydroxyacetyl)piperidin-4-yl]-1-methyl-5-[(pyridin-2-ylcarbonyl)amino]-3-(2,2,2-trifluoroethoxy)-1H-pyrrolo[2,3-b]pyridine-2-carboxamide], the inhibition at 1 µM turned out to be 92%.

On to `CCc1nc2c(cc1NC(=O)c1ccc(Cl)s1)c(OC(C)C)c(C(=O)NC1CCN(C(=O)CO)CC1)n2C` [Example 59, 5-{[(5-chlorothiophen-2-yl)carbonyl]amino}-6-ethyl-N-[1-(hydroxyacetyl)piperidin-4-yl]-1-methyl-3-(1-methylethoxy)-1H-pyrrolo[2,3-b]pyridine-2-carboxamide], for which the inhibition at 1 µM stood at 95%.

For `Cc1nc2c(nc1NC(=O)c1ccccc1)c(OC(C)C)c(C(=O)NC1CCN(C(=O)CO)CC1)n2C` [Example 164, N-[1-(hydroxyacetyl)piperidin-4-yl]-3,5-dimethyl-7-(1-methylethoxy)-2-[(phenylcarbonyl)amino]-5H-pyrrolo[2,3-b]pyrazine-6-carboxamide], the inhibition at 1 µM worked out at 99%.

Take `Cc1cc2c(cc1NC(=O)c1ccccc1)c(OCC(F)(F)F)c(C(=O)NC1CCN(C(=O)CO)CC1)n2C` [Example 67, N-[1-(hydroxyacetyl)piperidin-4-yl]-1,6-dimethyl-5-[(phenylcarbonyl)amino]-3-(2,2,2-trifluoroethoxy)-1H-indole-2-carboxamide]: the inhibition at 1 µM was found to be 97%.

`CCc1nc2c(cc1NC(=O)c1sccc1Cl)c(OC(C)C)c(C(=O)NC1CCN(C(=O)CO)CC1)n2C` [Example 63, 5-{[(3-chlorothiophen-2-yl)carbonyl]amino}-6-ethyl-N-[1-(hydroxyacetyl)piperidin-4-yl]-1-methyl-3-(1-methylethoxy)-1H-pyrrolo[2,3-b]pyridine-2-carboxamide]: the inhibition at 1 µM worked out at 96%.

In the case of `CCc1cc2c(cc1NC(=O)c1ccc(Cl)cc1)c(OC(C)C)c(C(=O)NC1CCN(C(=O)CO)CC1)n2C` [Example 169, 5-{[(4-chlorophenyl)carbonyl]amino}-6-ethyl-N-[1-(hydroxyacetyl)piperidin-4-yl]-1-methyl-3-(1-methylethoxy)-1H-indole-2-carboxamide], the inhibition at 1 µM was 99%.

`CCc1nc2c(cc1NC(=O)c1ccccc1)c(OCC(F)(F)F)c(C(=O)N[C@H]1CC[C@H](O)CC1)n2C` [Example 37, 6-ethyl-N-(trans-4-hydroxycyclohexyl)-1-methyl-5-[(phenylcarbonyl)amino]-3-(2,2,2-trifluoroethoxy)-1H-pyrrolo[2,3-b]pyridine-2-carboxamide]: the inhibition at 1 µM was 87%.

Consider `CCc1nc2c(nc1NC(=O)c1ccccc1)c(OCC(F)(F)F)c(C(=O)NC1CCN(C(=O)CO)CC1)n2C` [Example 160, 3-ethyl-N-[1-(hydroxyacetyl)piperidin-4-yl]-5-methyl-2-[(phenylcarbonyl)amino]-7-(2,2,2-trifluoroethoxy)-5H-pyrrolo[2,3-b]pyrazine-6-carboxamide], for which the inhibition at 1 µM amounted to 99%.

Take `CCc1nc2c(cc1NC(=O)c1ccsc1)c(OCC(F)(F)F)c(C(=O)NC1CCN(C(=O)CO)CC1)n2C` [Example 50, 6-ethyl-N-[1-(hydroxyacetyl)piperidin-4-yl]-1-methyl-5-[(thiophen-3-ylcarbonyl)amino]-3-(2,2,2-trifluoroethoxy)-1H-pyrrolo[2,3-b]pyridine-2-carboxamide]: the inhibition at 1 µM came out at 94%.

Consider `CCOc1c(C(=O)NC2CCN(C(=O)CO)CC2)n(C)c2cc(CC)c(NC(=O)c3ccccc3)nc12` [Example 129, 3-ethoxy-6-ethyl-N-[1-(hydroxyacetyl)piperidin-4-yl]-1-methyl-5-[(phenylcarbonyl)amino]-1H-pyrrolo[3,2-b]pyridine-2-carboxamide], for which the inhibition at 1 µM stood at 92%.

With `Cc1cc2c(nc1-c1ccccc1)c(OCC(F)(F)F)c(C(=O)NC1CCN(C(=O)CO)CC1)n2C` [Example 136, N-[1-(hydroxyacetyl)piperidin-4-yl]-1,6-dimethyl-5-phenyl-3-(2,2,2-trifluoroethoxy)-1H-pyrrolo[3,2-b]pyridine-2-carboxamide], the inhibition at 1 µM was 95%.

As for `CCc1cc2c(cc1NC(=O)c1ccccc1)c(OC(C)C)c(C(=O)NC1CCN(C(=O)CO)CC1)n2C` [Example 71, 6-ethyl-N-[1-(hydroxyacetyl)piperidin-4-yl]-1-methyl-3-(1-methylethoxy)-5-[(phenylcarbonyl)amino]-1H-indole-2-carboxamide], the inhibition at 1 µM stood at 97%.

Regarding `CCc1nc2c(cc1Nc1cccc(OC)c1)c(OCC(F)(F)F)c(C(=O)NC1CCN(C(=O)CO)CC1)n2C` [Example 5, 6-ethyl-N-[1-(hydroxyacetyl)piperidin-4-yl]-5-[(3-methoxyphenyl)amino]-1-methyl-3-(2,2,2-trifluoroethoxy)-1H-pyrrolo[2,3-b]pyridine-2-carboxamide], the inhibition at 1 µM came to 97%.

Consider `Cc1nc2c(cc1NC(=O)c1ccc(F)cc1)c(OCC(F)(F)F)c(C(=O)NC1CCN(C(=O)CO)CC1)n2C` [Example 48, 5-{[(4-fluorophenyl)carbonyl]amino}-N-[1-(hydroxyacetyl)piperidin-4-yl]-1,6-dimethyl-3-(2,2,2-trifluoroethoxy)-1H-pyrrolo[2,3-b]pyridine-2-carboxamide], for which the inhibition at 1 µM came out at 97%.

On to `CCc1nc2c(cc1NC(=O)c1cccc(F)c1)c(OCC(F)(F)F)c(C(=O)NC1CCN(C(=O)CO)CC1)n2C` [Example 30, 6-ethyl-5-{[(3-fluorophenyl)carbonyl]amino}-N-[1-(hydroxyacetyl)piperidin-4-yl]-1-methyl-3-(2,2,2-trifluoroethoxy)-1H-pyrrolo[2,3-b]pyridine-2-carboxamide], for which the inhibition at 1 µM amounted to 97%.

Take `CCc1cc2c(nc1-c1ccc(F)cc1)c(OC(C)C)c(C(=O)NC1CCN(C(=O)CO)CC1)n2C` [Example 132, 6-ethyl-5-(4-fluorophenyl)-N-[1-(hydroxyacetyl)piperidin-4-yl]-1-methyl-3-(1-methylethoxy)-1H-pyrrolo[3,2-b]pyridine-2-carboxamide]: the inhibition at 1 µM was 86%.

In the case of `CCc1cc2c(cc1NC(=O)c1ccsc1)c(OC(C)C)c(C(=O)NC1CCN(C(=O)CO)CC1)n2C` [Example 148, 6-ethyl-N-[1-(hydroxyacetyl)piperidin-4-yl]-1-methyl-3-(1-methylethoxy)-5-[(thiophen-3-ylcarbonyl)amino]-1H-indole-2-carboxamide], the inhibition at 1 µM was determined as 98%.

As usually defined, the inhibition is the drop in the measured response relative to a control, in per cent.
